The target in this assay is T1, 5-hydroxytryptamine receptor 3A (Homo sapiens, UniProt P46098).
T1 sequence (P46098 whole entry): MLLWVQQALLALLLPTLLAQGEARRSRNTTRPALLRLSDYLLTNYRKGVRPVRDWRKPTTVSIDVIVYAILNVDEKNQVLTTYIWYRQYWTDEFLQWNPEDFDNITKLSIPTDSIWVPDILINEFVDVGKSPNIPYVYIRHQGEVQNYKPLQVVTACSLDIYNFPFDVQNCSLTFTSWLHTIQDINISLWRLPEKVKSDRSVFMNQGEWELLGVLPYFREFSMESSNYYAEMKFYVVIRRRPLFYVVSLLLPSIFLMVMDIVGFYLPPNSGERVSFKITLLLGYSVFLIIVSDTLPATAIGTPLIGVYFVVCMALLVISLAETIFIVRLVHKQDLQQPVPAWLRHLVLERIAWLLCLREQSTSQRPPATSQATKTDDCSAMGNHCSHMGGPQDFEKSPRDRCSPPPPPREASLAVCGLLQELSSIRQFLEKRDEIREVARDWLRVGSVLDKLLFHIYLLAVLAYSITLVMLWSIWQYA
Briefly: Radioligand Binding Assay: The relative affinity of the various compounds for the human 5-HT3 receptor was measured in a radioligand binding assay, using a scintillation proximity assay (SPA) format. (In general: Scintillation proximity formats need no separation of bound from free tracer.)

The structures appear in SMILES notation.

As usually defined, the Ki is a dissociation constant, usually derived from enzyme kinetics or from competition with a known ligand. Higher therefore signals lower affinity.

Regarding `CCn1nc2c3c(cccc31)C(=O)N([C@@H]1CN3CCC1CC3)CC2`, the inhibitory constant (Ki) was 1 nM. With `O=C1c2cccc3[nH]nc(c23)CCN1[C@@H]1CN2CCC1CC2` the figure was 4 nM; with `O=C1c2cccc3c2c(cn3S(=O)(=O)c2ccccc2)CCN1[C@@H]1CN2CCC1CC2`, 25 nM. The molecule `Cn1nc2c3c(cccc31)C(=O)N([C@@H]1CN3CCC1CC3)CC2` yielded a Ki of 2 nM. For the molecule `CC(C)n1nc2c3c(cccc31)C(=O)N([C@@H]1CN3CCC1CC3)CC2`, the Ki was found to be 2 nM. As for `O=C1c2cccc3c2c(nn3Cc2ccccc2)CCN1[C@@H]1CN2CCC1CC2`, the figure is 2 nM. As for `O=C1c2cccc3[nH]nc(c23)CCN1[C@H]1CN2CCC1CC2`, the figure is 108 nM.

The values above are taken from ChEMBL document CHEMBL3638734, “5-HT3 receptor modulators, methods of making, and use thereof” (2013).
